Like-named read-outs stand apart in the source and are kept apart here.

The source of these data is patent publication US20080108641A1, “Compounds for treating inflammatory disorders, demyelinating disdorders and cancers” (priority 2006, published 2008).

One data set has as its target T1, FLT3 (Homo sapiens, UniProt P36888).
T1 construct: purchased Invitrogen, Inc. (SelectScreen platform)
T1 sequence (P36888 27-993): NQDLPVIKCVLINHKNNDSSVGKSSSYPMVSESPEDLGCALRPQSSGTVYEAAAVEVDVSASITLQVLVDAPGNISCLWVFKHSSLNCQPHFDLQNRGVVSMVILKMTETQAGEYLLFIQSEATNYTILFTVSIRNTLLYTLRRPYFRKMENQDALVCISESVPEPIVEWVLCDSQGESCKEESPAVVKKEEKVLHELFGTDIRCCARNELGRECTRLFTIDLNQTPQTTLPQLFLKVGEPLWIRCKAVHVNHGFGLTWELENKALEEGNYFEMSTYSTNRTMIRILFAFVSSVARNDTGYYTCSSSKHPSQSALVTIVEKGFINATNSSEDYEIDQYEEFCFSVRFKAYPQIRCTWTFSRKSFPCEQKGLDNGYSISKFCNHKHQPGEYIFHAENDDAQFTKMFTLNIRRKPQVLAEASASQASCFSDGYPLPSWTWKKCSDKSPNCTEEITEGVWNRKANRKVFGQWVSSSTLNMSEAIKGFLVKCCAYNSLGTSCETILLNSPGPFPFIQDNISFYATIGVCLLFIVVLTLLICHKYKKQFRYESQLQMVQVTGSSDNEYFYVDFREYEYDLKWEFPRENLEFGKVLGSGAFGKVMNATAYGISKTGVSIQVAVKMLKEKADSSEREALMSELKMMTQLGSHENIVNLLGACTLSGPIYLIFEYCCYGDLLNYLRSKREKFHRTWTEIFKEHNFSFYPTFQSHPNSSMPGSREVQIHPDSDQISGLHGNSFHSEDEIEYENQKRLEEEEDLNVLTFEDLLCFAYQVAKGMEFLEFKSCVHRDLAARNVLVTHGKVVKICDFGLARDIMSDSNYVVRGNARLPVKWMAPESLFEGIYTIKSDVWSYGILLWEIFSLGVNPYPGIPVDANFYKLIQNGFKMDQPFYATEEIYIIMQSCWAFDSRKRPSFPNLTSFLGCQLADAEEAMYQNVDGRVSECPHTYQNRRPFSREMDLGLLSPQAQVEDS
In words: SelectScreen kinase assay against FLT3. The class given is biochemical. Particulars: ATP at 100 micromolar; for inhibition at 1 µM: 1000 nMolar, read-out: E1000 (percent inhibition at 1000 nMolar). The protocol:
The terms “IC50” and “EC50” are used interchangeably. As used herein, “EC50” refers to nMolar concentration at median percent inhibition determined by dose respose (DR) assay. As used herein, the term “E1000” refers to percent inhibition at 1000 nMolar determined by assay. EC50 was calculated based on dose response curve was fitted to 4 parameter Hill equation.
Testing of the compounds described in this invention was carried out using the SelectScreen™ platform from Invitrogen, Inc. (Carlsbad, Calif., USA) and the details of its performance are readily viewed via the web by linking to: http://www.invitrogen.com/downloads/SelectScrn_Brochure.pdf.
Briefly the approach is based on treating each specific kinase with a unique substrate and optical reporter system in the presence of ATP at 100 micromolar. In controls, the substrate is phosphorylated and a baseline optimal response is recorded.
The compounds were then re-tested by adding graded amounts of putative inhibitor which were added in 5 separate increments to generate a dose response curve. The latter is obtained by fitting to a 4 parameter Hill equation, a sigmoid saturation equation.
For the compounds of this invention, the experimental condition were as follows. The 2×FLT3/Tyr 02 peptide mixture was prepared in 50 mM HEPES pH 7.5, 0.01 BRIJ-35, 10 mM MgCl2, 1 mM EGTA. The final 10 uL kinase reaction consists of 0.6-76.0 ng FLT3 and 2 uM Tyr 02 peptide in 50 mM HEPES pH 7.5, 0.01% BRIJ-35, […], 1 mM EGTA. After 1 hour kinase reaction incubation, 5 uL of a 1:64 dilution of development reagent A was added.
EC50 and E1000 values for selected compounds of formula (IB) were measured according to the protocol described above in Example 9.

The subject of data set [1] is arthritis induced by monoclonal antibodies raised against type II collagen, plus LPS. Particulars: Lange et al., 2005; cited from earlier work.
In the next data set the test system is IL-4. The data set is described as follows: Mediator release, IL-4 (Con A-stimulated PBML, sandwich ELISA). The class given is cell-based. The note with it: Homo sapiens, read-out: % Growth Inhibition. The protocol: (§1) In this experiment, test compound and/or vehicle were preincubated with human peripheral blood mononuclear leukocyte (PBML, 1×10^6/ml) in RPMI buffer pH 7.4 for 2 hours. Concanavalin A (Con A, 20 μg/ml) was then added to stimulate the cells overnight in 5% CO2 at 37° C. IL-4 and IL-10 cytokine levels in the conditioned medium were then quantified using a sandwich ELISA kit. Compounds were screened at 10, 1, 0.1, 0.01 and 0.001 μM.
Background: An ELISA detects its analyte on a solid surface through an enzyme-linked reagent.

In data set [2] the test system is Experimental Autoimmune Encephalomyelitis (EAE). The data set is described as follows: Acute stage Experimental Autoimmune Encephalomyelitis (EAE) model, daily dosing. The protocol:
Accordingly, three randomized cohorts of guinea pigs with EAE induced by the method of Example 2, were treated, respectively, with 6 mg/kg of Symadex™ (full salt hydrate) and 0.35 mg/kg of mitoxantrone. Animals were treated daily, by intraperitoneal injection, for 15 days, starting on day 7 post immunization. Controls were treated with vehicle. We reasoned that 15 consecutive, 6 mg/kg doses of Symadex™ would represent a level of drug exposure that would be commensurate with the “20 mg/kg every 72 hours” regimen in Example 4 and consistent with a mid level exposure between the 20 mg/kg and the 40 mg/kg schedule given weekly, in Example 2. The mitoxantrone dose was selected to reflect a typical high dose given to rats or mice by daily dosing in the prior art, but allometrically scaled to the guinea pig.

The next data set relates to IL-10. The data set is described as follows: Mediator release, IL-10 (Con A-stimulated PBML, sandwich ELISA). It is filed as cell-based. Particulars: Homo sapiens, read-out: % inhibition of IL-10 release, read-out: % Growth Inhibition. The protocol: as §1
In data set [3] the test system is T-lymphocyte cells isolated from thymus. The data set is described as follows: Cell proliferation, T-Cell + Con A ([3H]thymidine incorporation). The class given is cell-based, balb/c mice. The note with it: Mus musculus. As for the experimental part:
T-lymphocyte cells isolated from thymus of balb/c mice weighing 17±1 g were used. Test compound and/or vehicle is incubated with the cells (4×10^6/ml) in the presence of 3 μg/mL Concanavalin A (Con A) in AIM-V medium pH 7.4 at 37° C. for 24 hours. [^3H]Thymidine (120 nM) was then added for an additional overnight incubation period. Thymidine incorporation was assessed by liquid scintillation counting. Compounds were screened at 10, 1, 0.1, 0.01 and 0.001 μM.
(§2) Test compound-induced suppression of cell proliferation by 50 percent or more (≧50%) relative to vehicle control response indicates significant inhibitory activity.

The subject of data set [4] is B-lymphocyte cells isolated from the spleen. In words: Cell proliferation, B-Cell + LPS ([3H]thymidine incorporation). The class given is cell-based, balb/c mice. The note with it: Mus musculus, read-out: % Growth Inhibition. The protocol: B-lymphocyte cells isolated from the spleen of balb/c mice weighing 17±1 g were used. Test compound and/or vehicle were incubated with the cells (1.5×10^6/ml) in the presence of 10 μg/ml lipopolysaccharide (LPS) in AIM-V medium pH 7.4 at 37° C. for 24 hours. [^3H]Thymidine (120 nM) was then added for an additional overnight incubation period. Thymidine incorporation was assessed by liquid scintillation counting.
as §2
A general note: Dividing cells build labelled thymidine or BrdU into new DNA.

Turning to `CCN(CC)CCNc1ccc2ncn3c4ccc(OC(C)=O)cc4c(=O)c1c23` [Compound (VIB), Acetic acid 5-(2-diethylamino-ethylamino)-6-oxo-6H-2,10b-diaza-aceanthrylen-8-yl ester], at FLT3 (esters of formula (IB)), the inhibition at 1 µM was found to be 64% and the EC50 worked out at 471 nM.

Turning to `O=c1c2c(NCCN3CCOCC3)ccc3ncn(c4ccc5[nH]ncc5c14)c32` [Compound (VA)], at FLT3 (indazoles), the inhibition at 1 µM was found to be 87% and it took 32 nM to reach a half-maximal effect (EC50).

In turn, `CN(C)CCCNc1ccc2ncn3c4ccc5[nH]ncc5c4c(=O)c1c23` [(IVA)] showed an EC50 at FLT3 (indazoles) of 9 nM.

In the case of `CN(C)CCNc1ccc2ncn3c4ccc(OC(=O)OC(C)(C)C)cc4c(=O)c1c23` [(VB)], on FLT3 (esters of formula (IB)), the inhibition at 1 µM amounted to 92% and the midpoint of the response, the EC50, lay at 96 nM.

On to `CN(C)CCCCCNc1ccc2ncn3c4ccc5[nH]ncc5c4c(=O)c1c23` [(IIIA)], for which, at FLT3 (indazoles), the inhibition at 1 µM turned out to be 96% and the EC50 came to 16 nM.

Regarding `CN(Cc1cnc2nc(N)nc(N)c2n1)c1ccc(C(=O)N[C@@H](CCC(=O)O)C(=O)O)cc1` [Methotrexate], the “benefit in antibody induced arthritis models” value in data set [1] was “diminishing benefit”.

On to `O=C1c2c(O)ccc(O)c2C(=O)c2c(NCCNCCO)ccc(NCCNCCO)c21` [Mitoxantrone, reference compound], for which the inhibition at 0.001 µM was 11% in the data set with IL-4 (1 nM); 2% with IL-10 (1 nM); -1% in data set [3] (1 nM, read-out: % Growth Inhibition); 18% in data set [4] (1 nM). For the same compound, the inhibition at 0.01 µM was 13% with IL-4 (10 nM); 1% in the data set with IL-10 (10 nM); 19% in data set [3] (10 nM, read-out: % Growth Inhibition); 54% in data set [4] (10 nM). The inhibition at 0.1 µM in the data set on IL-4 (0.1 μM) amounted to 18%; in the data set with IL-10 (0.1 μM), 5%; in data set [3] (0.1 μM, read-out: % Growth Inhibition) it was 80%; in data set [4] (0.1 μM), 93%. The inhibition at 1 µM in the data set with IL-4 (1 μM) is -4%; with IL-10 (1 μM), 60%; in data set [3] (1 μM, read-out: % Growth Inhibition), 103%; in data set [4] (1 μM), 102%. Also, the inhibition at 10 µM worked out at 108% in the data set on IL-4 (10 μM); 102% with IL-10 (10 μM); 103% in data set [3] (10 μM, read-out: % Growth Inhibition); 102% in data set [4] (10 μM). In data set [2] (daily i.p. for 15 days from day 7 post immunization, Symadex 6 mg/kg, mitoxantrone 0.35 mg/kg), the “clinical score course (neurological impairment)” value is “initial rise in neurological impairment is arrested”. In addition, the “statistical significance of therapeutic effect on clinical score vs control (Mann-Whitney rank-sum)” value in data set [2] (daily i.p. for 15 days, Symadex 6 mg/kg (p below 0.05), mitoxantrone 0.35 mg/kg) is “did not reach statistical significance”. The weight gain profile entry in data set [2] (daily i.p. for 15 days, Symadex 6 mg/kg, mitoxantrone 0.35 mg/kg, Symadex vs mitoxantrone p 0.034) is reported as “impairs weight gain”. Further, the “pathology score: meningeal inflammation (M) vs control” value in data set [2] (necropsy after 15 daily doses) is “statistically significant reduction”. The “pathology scores: perivascular cuffing (P), myelitis (E) and demyelination (D) vs control” value in data set [2] (necropsy after 15 daily doses, p value<0.05 from control) is “reducing the perivascular cuffing (P), myelitis (E) and demyelination (D)”. In addition, the IC50 in data set [3] (T-Cell + Con A proliferation, read-out: IC50) stood at 32 nM.

By inhibition is commonly meant the drop in the measured response relative to a control, in per cent. As a reminder, the EC50 is the concentration giving half of the maximal effect. Low readings indicate greater potency, high ones weaker potency. As usually defined, the IC50 is the concentration that inhibits the measured activity by half.
